Paper PMC9319549, “Synthesis and Biological Evaluation of Imadazo[1,2-a]pyrazines as Anticancer and Antiviral Agents through Inhibition of CDK9 and Human Coronavirus” (Pharmaceuticals, 2022)
Where two headings read alike, the source gives them in different places.

Legend:
[1] = target: T1, CDK9 (Homo sapiens, UniProt P50750); assay: biochemical; conditions: biochemical assay; mean ± standard deviation of three individual experiments; read-out: CDK9 Inhibitory Activity IC50
T1 construct: purchased BPS Biosciences (San Diego, CA, USA) 79628
T1 sequence (P50750 whole entry): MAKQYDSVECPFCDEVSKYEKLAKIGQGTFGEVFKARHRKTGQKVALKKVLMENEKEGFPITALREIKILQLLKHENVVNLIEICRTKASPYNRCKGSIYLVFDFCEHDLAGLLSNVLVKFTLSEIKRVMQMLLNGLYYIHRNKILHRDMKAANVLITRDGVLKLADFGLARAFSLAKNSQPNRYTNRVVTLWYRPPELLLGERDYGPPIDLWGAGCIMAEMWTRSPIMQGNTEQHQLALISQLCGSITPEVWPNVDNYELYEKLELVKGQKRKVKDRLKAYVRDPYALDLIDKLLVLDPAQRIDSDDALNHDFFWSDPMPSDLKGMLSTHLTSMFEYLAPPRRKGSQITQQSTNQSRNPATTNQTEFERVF
T1 sequence (O60563 whole entry partner): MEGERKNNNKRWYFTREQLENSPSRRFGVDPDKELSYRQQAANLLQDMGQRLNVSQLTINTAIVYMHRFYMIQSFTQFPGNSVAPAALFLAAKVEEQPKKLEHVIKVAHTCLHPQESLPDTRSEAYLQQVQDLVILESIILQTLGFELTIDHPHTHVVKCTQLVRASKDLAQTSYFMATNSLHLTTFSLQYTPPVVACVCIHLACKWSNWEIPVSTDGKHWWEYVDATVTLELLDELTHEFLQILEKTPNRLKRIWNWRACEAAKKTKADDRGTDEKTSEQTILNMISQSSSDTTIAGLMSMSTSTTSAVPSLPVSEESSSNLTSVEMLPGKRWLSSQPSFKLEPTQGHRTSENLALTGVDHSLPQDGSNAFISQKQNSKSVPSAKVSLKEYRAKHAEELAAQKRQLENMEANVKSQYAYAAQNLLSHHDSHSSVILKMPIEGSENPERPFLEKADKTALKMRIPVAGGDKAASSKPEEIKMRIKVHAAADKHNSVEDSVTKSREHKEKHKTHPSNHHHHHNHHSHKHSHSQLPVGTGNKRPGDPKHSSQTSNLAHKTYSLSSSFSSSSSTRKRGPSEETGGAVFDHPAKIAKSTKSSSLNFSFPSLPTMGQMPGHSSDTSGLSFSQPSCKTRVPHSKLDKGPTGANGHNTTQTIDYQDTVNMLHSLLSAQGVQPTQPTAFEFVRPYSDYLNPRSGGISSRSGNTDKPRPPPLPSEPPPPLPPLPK
Procedure: In this study, all the newly synthesized compounds were assessed against CDK9 in a biochemical assay, and dinaciclib was used as a standard compound.
The luminescence was measured using a microplate reader. The results were analyzed using GraphPad Prism 5.0, and the kinase inhibitory activity was expressed as IC50 for three individual experiments. In the assay, dinaciclib was used as a positive control, and DMSO was used as negative control.

[2] = tested on: colorectal cancer (HCT116); assay: cells; conditions: Homo sapiens, HCT-116, 48 h, read-out: IC50 HCT116
Procedure: (§1) The in vitro cytotoxicity of our compounds was determined using MTT assay. […] The results were analyzed using GraphPad Prism 5.0, and cytotoxicity was expressed as IC50 for three individual experiments.

[3] = tested on: chronic myelogenous leukaemia; assay: cells; conditions: K652, 48 h, read-out: IC50 K652
Procedure: as §1

[4] = tested on: MCF7, HCT116 and K652 cell lines; assay: MTT cytotoxicity assay, average of three cell lines; format: cell-based; conditions: read-out: average IC50 of three cell lines
Procedure: as §1

[5] = tested on: breast cancer (MCF7); assay: MTT cytotoxicity assay, MCF7; format: cell-based; conditions: Homo sapiens, MCF7, 48 h, read-out: IC50 MCF7
Procedure: as §1

[6] = tested on: normal cells FHC; assay: cells; conditions: for average selectivity over three cancer cells: normal cells FHC vs MCF7, HCT116, K652; for IC50: read-out: FHC IC50
Procedure: as §1

[7] = Cytotoxicity on target cells in the antiviral assay (crystal violet)
Procedure: The results were analyzed using GraphPad Prism 5.0, and cytotoxicity was expressed as IC50 for three individual experiments. In the assay, ribavirin was used as a positive control, and DMSO was used as a negative control.

[8] = tested on: human coronavirus 229E; assay: Cytopathic effect (CPE) inhibition assay, crystal violet method; format: cell-based; conditions: read-out: IC50 (229E)
Procedure: The anti-coronaviral activity of the new compounds was assessed using a cytopathic effect (CPE) inhibition assay against human coronavirus 229E. Ribavirin (well-established antiviral agent) was used as standard in this assay.

[9] = target: T1, CDK9; conditions: identified by virtual screening from natural resources; cited from earlier work

Structure (SMILES): CC(C)(C)Nc1c(-c2ccccc2)nc2cnccn12 [Compound 1a, N-(Tert-butyl)-2-phenylimidazo[1,2-a]pyrazin-3-amine]
- IC50 [1]: 1.67 ± 0.025 µM
- IC50 [2]: 597 ± 8.25 µM
- IC50 [3]: 310 ± 4.49 µM
- IC50 [4]: 437 µM
- IC50 [5]: 405 ± 5.05 µM

Structure (SMILES): c1ccc(-c2nc3cnccn3c2NC2CCCCC2)cc1 [Compound 1b, N-Cyclohexyl-2-phenylimidazo[1,2-a]pyrazin-3-amine]
- IC50 [1]: 0.25 ± 0.004 µM
- IC50 [2]: 1.43 ± 0.02 µM
- IC50 [3]: 50.3 ± 0.8 µM
- average selectivity over three cancer cells [6]: 43 fold
- IC50 [6]: 123 ± 19.1 µM
- CC50 [7]: 299 µM
- IC50 [4]: 18.2 µM
- IC50 [5]: 3.01 ± 0.04 µM
- IC50 [8]: 146 µM

Structure (SMILES): c1ccc(CNc2c(-c3ccccc3)nc3cnccn23)cc1 [Compound 1c, N-Benzyl-2-phenylimidazo[1,2-a]pyrazin-3-amine]
- IC50 [1]: 1.01 ± 0.017 µM
- IC50 [2]: 59.3 ± 5.05 µM
- IC50 [3]: 88.6 ± 8.25 µM
- IC50 [5]: 99 ± 1.39 µM

Structure (SMILES): COc1ccc(Nc2c(-c3ccccc3)nc3cnccn23)cc1 [Compound 1d, N-(4-Methoxyphenyl)-2-phenylimidazo[1,2-a]pyrazin-3-amine]
- IC50 [1]: 1.04 ± 0.019 µM
- IC50 [2]: 75.2 ± 1.24 µM
- IC50 [3]: 77.4 ± 1.34 µM
- IC50 [5]: 244 ± 3.62 µM

Structure (SMILES): CC(C)(C)Nc1c(-c2ccc(O)c(O)c2)nc2cnccn12 [Compound 2a, 4-(3-(Tert-butylamino)imidazo[1,2-a]pyrazin-2-yl)benzene-1,2-diol]
- IC50 [1]: 1.14 ± 0.019 µM
- IC50 [2]: 35.9 ± 0.56 µM
- IC50 [3]: 22.8 ± 0.37 µM
- melting point: 270 to 272 °C
- IC50 [5]: 76.8 ± 1.08 µM

Structure (SMILES): Oc1ccc(-c2nc3cnccn3c2NC2CCCCC2)cc1O [Compound 2b, 4-(3-(Cyclohexylamino)imidazo[1,2-a]pyrazin-2-yl)benzene-1,2-diol]
- IC50 [1]: 0.89 ± 0.016 µM
- IC50 [2]: 105 ± 1.78 µM
- IC50 [3]: 54.2 ± 0.96 µM
- IC50 [5]: 119 ± 1.82 µM

Structure (SMILES): Oc1ccc(-c2nc3cnccn3c2NCc2ccccc2)cc1O [Compound 2c, 4-(3-(Benzylamino)imidazo[1,2-a]pyrazin-2-yl)benzene-1,2-diol]
- IC50 [1]: 0.31 ± 0.006 µM
- IC50 [2]: 59.9 ± 1.04 µM
- IC50 [3]: 88.6 ± 1.09 µM
- IC50 [5]: 39.7 ± 0.62 µM

Structure (SMILES): COc1ccc(Nc2c(-c3ccc(O)c(O)c3)nc3cnccn23)cc1 [Compound 2d, 4-(3-((4-Methoxyphenyl)amino)imidazo[1,2-a]pyrazin-2-yl)benzene-1,2-diol]
- IC50 [1]: 2.03 ± 0.04 µM
- IC50 [2]: 162 ± 2.41 µM
- IC50 [3]: 136 ± 2.59 µM
- IC50 [4]: 126 µM
- melting point: 150 to 152 °C
- IC50 [5]: 80.4 ± 1.31 µM

Structure (SMILES): CC(C)(C)Nc1c(-c2ccncc2)nc2cnccn12 [Compound 3a, N-(Tert-butyl)-2-(pyridin-4-yl)imidazo[1,2-a]pyrazin-3-amine]
- IC50 [1]: 0.26 ± 0.004 µM
- IC50 [2]: 2.69 ± 0.04 µM
- IC50 [3]: 46 ± 0.67 µM
- average selectivity over three cancer cells [6]: 41 fold
- IC50 [6]: 196 ± 2.79 µM
- CC50 [7]: 940 µM
- IC50 [4]: 17.7 µM
- IC50 [5]: 4.3 ± 0.5 µM
- IC50 [8]: 394 µM

Structure (SMILES): c1cc(-c2nc3cnccn3c2NC2CCCCC2)ccn1 [Compound 3b, N-Cyclohexyl-2-(pyridin-4-yl)imidazo[1,2-a]pyrazin-3-amine]
- IC50 [1]: 0.41 ± 0.007 µM
- IC50 [2]: 8.96 ± 0.14 µM
- IC50 [3]: 67.8 ± 1.08 µM
- CC50 [7]: 407 µM
- IC50 [5]: 31.7 ± 0.44 µM
- IC50 [8]: 57 µM

Structure (SMILES): c1ccc(CNc2c(-c3ccncc3)nc3cnccn23)cc1 [Compound 3c, N-Benzyl-2-(pyridin-4-yl)imidazo[1,2-a]pyrazin-3-amine]
- IC50 [1]: 0.16 ± 0.003 µM
- IC50 [2]: 7.96 ± 0.12 µM
- IC50 [3]: 4.45 ± 0.06 µM
- average selectivity over three cancer cells [6]: 15 fold
- IC50 [6]: 97.2 ± 1.58 µM
- CC50 [7]: 472 µM
- IC50 [4]: 6.66 µM
- IC50 [5]: 8.59 ± 0.12 µM
- IC50 [8]: 379 µM

Structure (SMILES): COc1ccc(Nc2c(-c3ccncc3)nc3cnccn23)cc1 [Compound 3d, N-(4-Methoxyphenyl)-2-(pyridin-4-yl)imidazo[1,2-a]pyrazin-3-amine]
- IC50 [1]: 0.8 ± 0.014 µM
- IC50 [2]: 27.9 ± 1.88 µM
- IC50 [3]: 46.6 ± 0.48 µM
- IC50 [5]: 118 ± 1.17 µM

Structure (SMILES): CC(C)(C)Nc1c(-c2ccsc2)nc2cnccn12 [Compound 4a, N-(Tert-butyl)-2-(thiophen-3-yl)imidazo[1,2-a]pyrazin-3-amine]
- IC50 [1]: 0.73 ± 0.011 µM
- IC50 [2]: 61.31 ± 0.12 µM
- IC50 [3]: 12.77 ± 0.06 µM
- average selectivity over three cancer cells [6]: 3.5 fold
- IC50 [6]: 76.1 ± 1.11 µM
- IC50 [5]: 25.4 ± 0.32 µM

Structure (SMILES): c1cn2c(NC3CCCCC3)c(-c3ccsc3)nc2cn1 [Compound 4b, N-Cyclohexyl-2-(thiophen-3-yl)imidazo[1,2-a]pyrazin-3-amine]
- IC50 [1]: 1.32 ± 0.006 µM
- IC50 [2]: 27.9 ± 0.43 µM
- IC50 [3]: 46.6 ± 0.76 µM
- melting point: 170 to 172 °C
- IC50 [5]: 181 ± 2.63 µM

Structure (SMILES): c1ccc(CNc2c(-c3ccsc3)nc3cnccn23)cc1 [Compound 4c, N-Benzyl-2-(thiophen-3-yl)imidazo[1,2-a]pyrazin-3-amine]
- IC50 [1]: 0.71 ± 0.012 µM
- IC50 [2]: 80.6 ± 1.26 µM
- IC50 [3]: 69.2 ± 3.89 µM
- IC50 [5]: 55.8 ± 0.8 µM

Structure (SMILES): COc1ccc(Nc2c(-c3ccsc3)nc3cnccn23)cc1 [Compound 4d, N-(4-Methoxyphenyl)-2-(thiophen-3-yl)imidazo[1,2-a]pyrazin-3-amine]
- IC50 [1]: 3.16 ± 0.058 µM
- IC50 [2]: 115 ± 1.93 µM
- IC50 [3]: 87.2 ± 1.53 µM
- IC50 [5]: 141 ± 2.13 µM

Structure (SMILES): Oc1ccc(-c2nc3cnccn3c2NCc2cccs2)cc1O [Compound 10]
- IC50 [9]: 5.12 µM

Structure (SMILES): NC(=O)c1ncn([C@@H]2O[C@H](CO)[C@@H](O)[C@H]2O)n1 [Ribavirin, reference compound]
- CC50 [7]: 160 µM
- IC50 [8]: 114 µM

Structure (SMILES): CN[C@@H]1C[C@H]2O[C@@](C)([C@@H]1OC)n1c3ccccc3c3c4c(c5c6ccccc6n2c5c31)C(=O)NC4 [Staurosporine, reference compound]
- IC50 [5]: 18.4 ± 0.4 µM
